# Values of other authors in patent EP3854384A1, “PHARMACEUTICAL FORMULATION COMPRISING ABIRATERONE ACETATE” (Adamed Pharma S.A., priority 2020, dated 2021).
# Settings: low water solubility and low intestinal permeability
smiles,measurement,value
"CC(=O)O[C@H]1CC[C@@]2(C)C(=CC[C@@H]3[C@@H]2CC[C@]2(C)C(c4cccnc4)=CC[C@@H]32)C1 [Abiraterone acetate, (3β)-17-(3-pyridinyl)androsta-5,16-dien-3-yl acetate]",Biopharmaceutical Classification System (BCS) class,class IV
